Counter-ions that a name gives are not always drawn.
What was measured:
[1] = Diameter and PDI from DLS measurements of mRNA nanoparticles with lipid amines; assay type: physicochemical
Procedure, shortened: (§1)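 Ionizable lipid nanoparticles (IL1:DSPC:cholesterol:PEG-DMG-2K) formed by vortex mixing at pH 4, loaded with luciferase or CFTR mRNA at N:P 4.93, neutralized with TRIS pH 8.12, then modified with lipid amine SA50 at pH 7.5. Particle diameter and PDI read by DLS; mRNA encapsulation by Ribogreen assay.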

HeLa cells [2] = assay: Luciferase Protein Expression Assay in HeLa Cells; assay type: cell-based, Human; settings: LNPs encapsulating Luciferase mRNA, 25 ng per well, N=4 wells; 5 h serum-free then 24 h; ONE-Glo
Procedure, shortened: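 HeLa cells received LNPs carrying luciferase mRNA (25 ng per well) or PBS in serum-free MEM for 5 h, then complete MEM for a further 24 h. Luciferase then read by ONE-Glo luminescence after lysis and reported as average RLU of 4 replicate wells.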

[3] = Encapsulation of mRNA nanoparticles with lipid amines using Ribogreen assay; assay type: physicochemical
Procedure, shortened: as §1

HeLa cells [4] = assay: CFTR Protein Expression Assay in HeLa Cells; assay type: cell-based, Human; settings: LNPs encapsulating CFTR mRNA, N=4 wells; 5 h serum-free then 24 h; immunofluorescence vs PBS control
Procedure, shortened: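 HeLa cells dosed with CFTR mRNA LNPs (70 mM NaCl final buffer matrix) in serum-free MEM for 5 h, then complete MEM for 24 h. Fixed cells immunostained with anti-CFTR monoclonal and Alexa 488 secondary, imaged confocally; CFTR intensity per cell expressed as fold-change versus PBS buffer control, N=4 wells.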

[5] = CFTR mRNA nanoparticle with lipid amine
[6] = Luciferase mRNA nanoparticle modified with lipid amine

| SMILES | Diameter (nm) [1, 5] [nm] | PDI [1, 5] | Diameter (nm) [1, 6] [nm] | PDI [1, 6] | Average Relative Light Units ± Standard Deviation (HeLa cells [2]) [Relative Light Units] | % Encapsulation (Ribogreen) [3, 5] [%] | % Encapsulation (Ribogreen) [3, 6] [%] | Average fold-change in CFTR signal intensity per cell compared to buffer control ± standard deviation (HeLa cells [4]) [fold-change] |
| --- | --- | --- | --- | --- | --- | --- | --- | --- |
| CC[C@H](CC[C@@H](C)[C@H]1CC[C@H]2[C@@H]3CC=C4C[C@@H](SSCCC(=O)N(CCCCNCCC(N)(CC)CC)CCC(N)(CC)CC)CC[C@]4(C)[C@H]3CC[C@]12C)C(C)C [SA181, N-(3-amino-3-ethylpentyl)-N-(4-((3-amino-3-ethylpentyl)amino)butyl)-3-(((3S,8S,9S,10R,13R,14S,17R)-17-((2R,5R)-5-ethyl-6-methylheptan-2-yl)-10,13-dimethyl-2,3,4,7,8,9,10,11,12,13,14,15,16,17-tetradecahydro-1H-cyclopenta[a]phenanthren-3-yl)disulfaneyl)propanamide trihydrochloride] | 69 | 0.13 | 74 | 0.16 | 12107.3 ± 1481.4 | 98.7 | 99.5 | 6.3 ± 0.4 |
| CC[C@H](CC[C@@H](C)[C@H]1CC[C@H]2[C@@H]3CC=C4C[C@@H](OC(=O)CCCC(=O)N(CCCCNCCC(N)(CC)CC)CCC(N)(CC)CC)CC[C@]4(C)[C@H]3CC[C@]12C)C(C)C [SA182, (3S,8S,9S,10R,13R,14S,17R)-17-((2R,5R)-5-ethyl-6-methylheptan-2-yl)-10,13-dimethyl-2,3,4,7,8,9,10,11,12,13,14,15,16,17-tetradecahydro-1H-cyclopenta[a]phenanthren-3-yl 5-((3-amino-3-ethylpentyl)(4-((3-amino-3-ethylpentyl)amino)butyl)amino)-5-oxopentanoate trihydrochloride] | 72 | 0.13 | 73 | 0.14 | 38564.9 ± 12453 | 98.0 | 99.0 | 13.2 ± 0.9 |
| CC[C@H](CC[C@@H](C)[C@H]1CC[C@H]2[C@@H]3CC=C4C[C@@H](OC(=O)N(CCCCNCCC(N)(CC)CC)CCC(N)(CC)CC)CC[C@]4(C)[C@H]3CC[C@]12C)C(C)C [SA183, (3S,8S,9S,10R,13R,14S,17R)-17-((2R,5R)-5-ethyl-6-methylheptan-2-yl)-10,13-dimethyl-2,3,4,7,8,9,10,11,12,13,14,15,16,17-tetradecahydro-1H-cyclopenta[a]phenanthren-3-yl (3-amino-3-ethylpentyl)(4-((3-amino-3-ethylpentyl)amino)butyl)carbamate trihydrochloride] | 71 | 0.14 | 76 | 0.21 | 33915.2 ± 6639.9 | 99.0 | 99.6 | 13.6 ± 0.7 |
| CCC(N)(CC)CCNCCCCN(CCC(N)(CC)CC)C(=O)CCSS[C@H]1CC[C@@]2(C)C(=CC[C@H]3[C@@H]4CC[C@H]([C@H](C)CCCC(C)C)[C@@]4(C)CC[C@@H]32)C1 [SA184, N-(3-amino-3-ethylpentyl)-N-(4-((3-amino-3-ethylpentyl)amino)butyl)-3-(((3S,8S,9S,10R,13R,14S,17R)-10,13-dimethyl-17-((R)-6-methylheptan-2-yl)-2,3,4,7,8,9,10,11,12,13,14,15,16,17-tetradecahydro-1H-cyclopenta[a]phenanthren-3-yl)disulfaneyl)propanamide trihydrochloride] | 71 | 0.13 | 74 | 0.12 | 26222.4 ± 4612.1 | 99.0 | 98.8 | 11.3 ± 0.7 |
| CCC(N)(CC)CCNCCCCN(CCC(N)(CC)CC)C(=O)CCCC(=O)O[C@H]1CC[C@@]2(C)C(=CC[C@H]3[C@@H]4CC[C@H]([C@H](C)CCCC(C)C)[C@@]4(C)CC[C@@H]32)C1 [SA185, (3S,8S,9S,10R,13R,14S,17R)-10,13-dimethyl-17-((R)-6-methylheptan-2-yl)-2,3,4,7,8,9,10,11,12,13,14,15,16,17-tetradecahydro-1H-cyclopenta[a]phenanthren-3-yl 5-((3-amino-3-ethylpentyl)(4-((3-amino-3-ethylpentyl)amino)butyl)amino)-5-oxopentanoate trihydrochloride] | 73 | 0.16 | 75 | 0.16 | 36168.3 ± 7638.9 | 98.6 | 99.4 | 14.2 ± 1.0 |
